Measured values: patent US7820833B2, “Dithio compounds” (Marquette University, priority 2005, dated 2010)

Assay: FRET-based detection of thiols with coumarin-DAP-FITC
Conditions: 5 μM probe, Hepes pH 7.0; excitation 300 to 330 nm; no DTT
Experimental: FIG. 18. FRET-based detection of thiols: (a) R^1—S—S—R^2 probe with FRET capability (coumarin-DAP-FITC); (b) Fluorescence emission of coumarin-DAP-FITC at different excitation wavelengths; (c) Fluorescence emission of coumarin DAP-FITC after treatment with 1 mM DTT reductant (5 min) at different excitation wavelengths.
Hepes (pH 7.0) buffer was used in this study (FIG. 18) and fluorescence readings were made on a BMG Polarstar Galaxy fluorescence plate reader and/or on a Jasco FP-6500 spectrofluorometer. […] The probe (5 μM) was transferred to a 4 mL fluorescence cell and a three dimensional fluorescence spectra was recorded with excitation wavelength from 300 nm to 400 nm and emission wavelength from 400 nm to 600 nm. The coumarin chromophone has maximum excitation wavelength in the range of 310 to 325 nm and emits in the range of 400 nm to 425 nm. […] Analogues of this coumarin-DAP-FITC FRET pair can be used to tune excitation wavelengths in the range of 280 to 400 nm by placing different substitutions on the coumarin core. This includes using commercially available coumarin compounds and also coumarin compounds synthesized with functional groups like NO2, CN, NH2, COOH, CHO, alkyl, benzyl, pyridyl, naphthyl, indoles, etc at any of the synthetically feasible positions on benzyl ring of coumarin or lactone ring of coumarin. […]

## Cc1cc(=O)oc2cc(SSc3ccc(C(=S)Nc4ccc(C(=O)O)c(-c5c6ccc(=O)cc-6oc6cc(O)ccc56)c4)cc3)ccc12 [coumarin-DAP-FITC, 2-(6-Hydroxy-3-oxo-3H-xanthen-9-yl)-4-[4-(4-methyl-2-oxo-2H-chromen-7-yldisulfanyl)-thiobenzoylamino]-benzoic acid]
  fluorescence emission of intact probe: emission is only from FITC at 520 nm
